Assay results reported in article PMC8838521, “Antimicrobial, Cytotoxic and Mutagenic Activity of Gemini QAS Derivatives of 1,4:3,6-Dianhydro-L-iditol” (Molecules, 2022).
Counter-ions that a name gives are not always drawn.

Assays:
[1] = tested on: Candida albicans ATCC 10231; design: method as in PMID 16459482; details: strain not stated; cited from earlier work
[2] = tested on: Staphylococcus aureus ATCC 25923; design: method as in PMID 23669380; details: strain not stated; cited from earlier work
Escherichia coli K12 = details: strain not stated; cited from earlier work
[3] = tested on: human keratinocytes (HaCaT cell line); test: Cytotoxicity, MTT assay; assay type: cell-based; details: MTT, 24 h incubation
Protocol: To assess the cytotoxicity of QAS (IC50), the MTT assay on 96-well polystyrene plates was performed for human keratinocytes (HaCaT, Elabscience Biotechnology Inc., Houston, Texas, USA). The assay utilizes colorimetric determination of the cell metabolic activity and the color intensity reflects the number of live cells that can be measured spectrophotometrically. The cell line was cultured in a Dulbecco’s modified Eagle Medium (Invitrogen) supplemented with 10% fetal bovine serum (Sigma Aldrich) (v/v), 100 units/mL of penicillin, 100 μg/mL of streptomycin, and 2 mM L-glutamine and was stored at 37 °C in a humidified 5% CO2 incubator. Briefly, a day after plating of 500 cells per well, a series of concentrations (0.5–200 μg/mL) of the test compounds was applied. DMSO was added to the control cells at a final concentration of 1.0% (v/v), which was related to the maximal concentration of the solvent compounds used in the experiment. After 24 h of incubation with the QAS at 37 °C (humidified 5% CO2 incubator), a medium containing 1 mg/mL of MTT (3-(4,5-dimethylthiazol-2-yl)-2,5-diphenyltetrazolium bromide) was added to the wells up to a final concentration of 0.5 mg/mL. Subsequently, the plates were incubated at 37 °C for 4 h. Then, the medium was removed by suction, and the formazan product was solubilized with DMSO. The background absorbance at 630 nm was subtracted from that at 570 nm for each well (Epoch, BioTek Instruments, Winooski, VT, USA). Six replicates were conducted for each concentration. All experiments were repeated at least twice and the resulting IC50 values were calculated with GraFit 7 software (v. 7.0, Erithacus, Berkley, CA, USA).

Row | Compound | melting point | MIC against C. albicans [1] | MIC against S. aureus [2] | MIC against E. coli (Escherichia coli K12) | HaCaT IC50 [3]
1 | Cn1cc[n+](C2COC3C2OCC3[n+]2ccn(C)c2)c1 (as salt: methanesulfonate) [QAS 6, N,N’-(1,4:3,6-Dianhydro-2,5-dideoxy-L-iditol-2,5-diyl)-bis(N-methylimidazolium) Ditrifluoromethanesulfonate] | 90.5 to 93.7 °C | – | – | – | –
2 | CCCCCC[N+](C)(C)C1COC2C1OCC2[N+](C)(C)CCCCCC (as salt: methanesulfonate) [QAS 8, N,N’-(1,4:3,6-Dianhydro-2,5-dideoxy-L-iditol-2,5-diyl)-bis(N,N-dimethyl-N-hexylammonium) Ditrifluoromethanesulfonate] | 222.8 to 224 °C | – | – | – | –
3 | CCCCCCCCCC[N+](C)(C)C1COC2C1OCC2[N+](C)(C)CCCCCCCCCC (as salt: methanesulfonate) [QAS 10, N,N’-(1,4:3,6-Dianhydro-2,5-dideoxy-L-iditol-2,5-diyl)-bis(N,N-dimethyl-N-decylammonium) Ditrifluoromethanesulfonate] | 191 °C (dec.) | – | – | – | –
4 | Benzalkonium chloride [BAC] | – | 8 µg/mL | 2 µg/mL | 13 µg/mL | 1.1 ± 1.4 µg/mL
